Results on 40 molecules are retold here after patent US12528818B2, “Compositions and methods for inhibition of RAS” (Leidos Biomedical Research, Inc., priority 2021, dated 2026).

Bounds are passed on as bounds.

For the first test, the system named is pERK in NCI-H358 cells. Put plainly: Cell-based pERK HTRF assay (pERK inhibition in H358 cells). The conditions noted are these: Homo sapiens, NCI-H358, 0.5 h, pERK inhibition IC50, NCI-H358 cells, 30 min incubation; read-out: PERK in H358 cell. (In general: TR-FRET usually uses a lanthanide donor and a delayed reading to cut background.)
As for `C=CC(=O)N1CC[C@@H](N(C)c2nc(OC[C@@]34CCCN3C[C@H](F)C4)nc3c(F)c(-c4ccc(F)c5sc(N)c(C#N)c45)c(C(F)(F)F)cc23)[C@H]1C` [Compound 381, 4-(4-(((2R,3R)-1-acryloyl-2-methylpyrrolidin-3-yl)(methyl)amino)-8-fluoro-2-(((2R,7aS)-2-fluorotetrahydro-1H-pyrrolizin-7a(5H)-yl)methoxy)-6-(trifluoromethyl)quinazolin-7-yl)-2-amino-7-fluorobenzo[b]thiophene-3-carbonitrile], the IC50 was less than 100 nM.
On the same count and under the same terms, with `C=CC(=O)N1CCC(N(C)c2nc(OC[C@@H]3C[C@@H](OC)CN3C)nc3c(F)c(-c4ccc(F)c5sc(N)c(C#N)c45)c(C(F)(F)F)cc23)[C@H]1C` (stereo partly shown) [Compound 407] the figure was less than 100 nM.
On the same count and under the same terms, with `C=CC(=O)N1C[C@@H](F)[C@@H](N(C)c2nc(OC[C@@H]3C[C@@H](OC)CN3C)nc3cc(-c4ccc(F)c5sc(N)c(C#N)c45)c(C(F)(F)F)cc23)C1` [Compound 361] the figure was less than 100 nM; with `C=CC(=O)N1CC[C@@H](N(C)c2nc(OCC3(CN4CCOCC4)CC3)nc3c(F)c(-c4ccc(F)c5sc(N)nc45)c(C(F)(F)F)cc23)C1` [Compound 287], less than 100 nM; with `C=CC(=O)N1CCC(N(C)c2nc(OC[C@@H]3CCCN3C)nc3cc(-c4ccc(F)c5sc(N)c(C#N)c45)c(C#N)cc23)[C@H]1COC` (stereo partly shown) [Compound 455], 100 to 1000 nM.
On to `C=CC(=O)N1CCN(c2nc(OC[C@@]34CCCN3C[C@@H](F)C4)nc3c(F)c(-c4ccc(F)c5sc(N)nc45)c(C(F)(F)F)cc23)[C@H](C)C1` [Compound 217], for which the IC50 is 100 to 1000 nM.
On the same count and under the same terms, with `C=CC(=O)N1CC[C@@H](N(CC)c2nc(OC[C@@]34CCCN3C[C@H](F)C4)nc3c(F)c(-c4ccc(F)c5sc(N)c(C#N)c45)c(C(F)(F)F)cc23)[C@H]1COC` [Compound 442] the figure was less than 100 nM; with `C=CC(=O)N1CCC(N(C)c2nc(OC[C@@H]3C[C@@H](OC)CN3C)nc3cc(-c4ccc(F)c5sc(N)c(C#N)c45)c(C#N)cc23)[C@H]1COC` (stereo partly shown) [Compound 465], 100 to 1000 nM.
The same measure, in the same setting: the result for `C=CC(=O)N1CCN(c2nc(OCC34CCCN3CCC4)nc3c(F)c(-c4ccc(F)c5sc(N)nc45)c(-c4ccoc4)cc23)CC1` [Compound 119] reads greater than 1000 nM.
The same measure, in the same setting: the result for `C=CC(=O)N1CC(N(CC)c2nc(OC[C@]34CCCN3C[C@H](F)C4)nc3c(F)c(-c4ccc(F)c5sc(N)nc45)c(C(F)(F)F)cc23)C1` [Compound 206] reads 100 to 1000 nM; that for `C=CC(=O)N1C[C@H](C)[C@@H](N(C)c2nc(OC[C@@]34CCCN3C[C@H](F)C4)nc3c(F)c(-c4ccc(F)c5sc(N)nc45)c(C(F)(F)F)cc23)C1` [Compound 296], less than 100 nM.
For `C=CC(=O)N1CC[C@@H](N(C)c2nc(OC[C@@]34CCCN3C[C@H](F)C4)nc3cc(-c4c(F)cc(F)c5sc(N)nc45)c(C(F)(F)F)cc23)C1` [Compound 305], the IC50 is less than 100 nM.
The same measure, in the same setting: with `C=CC(=O)N1C[C@H](C)N(c2nc(OC[C@@]34CCCN3C[C@H](F)C4)nc3c(F)c(-c4ccc(F)c5sc(NC(C)=O)c(C#N)c45)c(C(F)(F)F)cc23)C[C@H]1C` [Compound 378] the figure was 100 to 1000 nM; with `C=CC(=O)N1C[C@H](C)N(c2nc(OC[C@@]34CCCN3C[C@H](F)C4)nc3c(F)c(-c4ccc(F)c5sc(N)nc45)c(OC(F)F)cc23)C[C@H]1C` [Compound 280], less than 100 nM; with `C=CC(=O)N1C[C@@H](F)[C@@H](N(C)c2nc(OC[C@@]34CCCN3C[C@H](F)C4)nc3c(F)c(-c4ccc(F)c5sc(N)nc45)c(C#N)cc23)C1` [Compound 360], 100 to 1000 nM.
In the case of `C=CC(=O)N1C[C@H](C)N(c2nc(OC[C@@]34CCCN3C[C@H](F)C4)nc3c(F)c(-c4ccc(F)c5sc(N)c(C#N)c45)ccc23)C[C@H]1C` [Compound 312], the IC50 is less than 100 nM.
Still for that read-out and setting: with `C=CC(=O)N1CC(N(CCC#N)c2nc(OC[C@@H]3CCCN3C)nc3c(F)c(-c4ccc(F)c5sc(N)nc45)c(Cl)cc23)C1` [Compound 141] the figure was greater than 1000 nM.
On the same count and under the same terms, with `C=CC(=O)N1CCN(c2nc(OC[C@@]34CCCN3C[C@H](F)C4)nc3c(F)c(-c4ccc(F)c5sc(N)nc45)c(C(F)(F)F)cc23)C[C@H]1C` [Compound 207] the figure was less than 100 nM; with `C=CC(=O)N1CCC(N(C)c2nc(OC[C@@]34CCCN3C[C@H](F)C4)nc3c(C#N)c(-c4ccc(F)c5sc(N)c(C#N)c45)ccc23)[C@H]1COC` (stereo partly shown) [Compound 394], 100 to 1000 nM; with `C=CC(=O)N1CCC(N(C)c2nc(OC[C@@H]3CCCN3C)nc3c(F)c(-c4ccc(F)c5sc(N)c(C#N)c45)c(C(F)(F)F)cc23)C1COC` (stereo partly drawn) [Compound 426, 4-(4-((1-acryloyl-2-(methoxymethyl)pyrrolidin-3-yl)(methyl)amino)-8-fluoro-2-(((S)-1-methylpyrrolidin-2-yl)methoxy)-6-(trifluoromethyl)quinazolin-7-yl)-2-amino-7-fluorobenzo[b]thiophene-3-carbonitrile], less than 100 nM.
Consider `C=CC(=O)N1CC(N(c2nc(OC[C@]34CCCN3C[C@H](F)C4)nc3c(F)c(-c4ccc(F)c5sc(N)nc45)c(Cl)cc23)C2CC2)C1` [Compound 210], for which the IC50 is greater than 1000 nM.
Still for that read-out and setting: with `C=CC(=O)N1C[C@H](C)N(c2nc(OC[C@@H]3CCCN3C)nc3c(F)c(-c4ccc(F)c5sc(N)c(C#N)c45)c(C(F)(F)F)cc23)C[C@H]1C` [Compound 363, 4-(4-((2S,5R)-4-acryloyl-2,5-dimethylpiperazin-1-yl)-8-fluoro-2-(((S)-1-methylpyrrolidin-2-yl)methoxy)-6-(trifluoromethyl)quinazolin-7-yl)-2-amino-7-fluorobenzo[b]thiophene-3-carbonitrile] the figure was less than 100 nM; with `C=CC(=O)N1CC(N(C)c2nc(OC[C@]34CCCN3C[C@H](F)C4)nc3c(F)c(-c4ccc(F)c5sc(N)nc45)c(Cl)cc23)C1` [Compound 169], 100 to 1000 nM; with `C=CC(=O)N1C[C@H](C)N(c2nc(OC[C@@H]3CC4(CC4)CN3C)nc3c(F)c(-c4ccc(F)c5sc(N)c(C#N)c45)c(C(F)(F)F)cc23)C[C@H]1C` [Compound 410, 4-(4-((2S,5R)-4-acryloyl-2,5-dimethylpiperazin-1-yl)-8-fluoro-2-(((S)-5-methyl-5-azaspiro[2.4]heptan-6-yl)methoxy)-6-(trifluoromethyl)quinazolin-7-yl)-2-amino-7-fluorobenzo[b]thiophene-3-carbonitrile], less than 100 nM.
Regarding `C=CC(=O)N1CC(Nc2nc(OC[C@@H]3C[C@@H](F)CN3C)nc3c(F)c(-c4ccc(F)c5sc(N)nc45)c(Cl)cc23)C1` [Compound 63], the IC50 is 100 to 1000 nM.
As for `C=CC(=O)N1C[C@@H](F)[C@@H](N(C)c2nc(OC[C@@H]3CC4(CC4)CN3C)nc3cc(-c4ccc(F)c5sc(N)c(C#N)c45)c(C(F)(F)F)cc23)C1` [Compound 357], the IC50 is less than 100 nM.
On the same count and under the same terms, the result for `C=CC(=O)N1C[C@@H](F)[C@@H](N(C)c2nc(OC[C@@H]3C[C@@H](F)CN3C)nc3cc(-c4ccc(F)c5sc(N)nc45)c(C(F)(F)F)cc23)C1` [Compound 355] reads less than 100 nM; that for `C=CC(=O)N1CC[C@@H](N(C)c2nc(OC[C@@]34CCCN3C[C@H](F)C4)nc3c(F)c(-c4ccc(F)c5sc(N)nc45)c(C(F)(F)F)cc23)C1` (single isomer, unassigned) [Compound 239], less than 100 nM; that for `C=CC(=O)N1CC(Nc2ncnc3c(F)c(-c4ccc(F)c5sc(N)nc45)cc(OC)c23)C1` [Compound 69, 1-(3-((7-(2-amino-7-fluorobenzo[d]thiazol-4-yl)-8-fluoro-5-methoxyquinazolin-4-yl)amino)azetidin-1-yl)prop-2-en-1-one], greater than 1000 nM.
As to `C=CC(=O)N1C[C@H](N(C)c2nc(OC[C@@]34CCCN3C[C@H](F)C4)nc3c(F)c(-c4ccc(F)c5sc(N)nc45)c(C(F)(F)F)cc23)C[C@H]1C` [Compound 274], the IC50 was less than 100 nM.
On the same count and under the same terms, the result for `CC#CC(=O)N1CCN(c2nc(OCC34CCCN3CCC4)nc3c(F)c(-c4ccc(F)c5sc(N)nc45)c(Cl)cc23)CC1` [Compound 133] reads greater than 1000 nM; that for `C=CC(=O)N1C[C@@H](F)[C@@H](N(CC)c2nc(OC[C@@]34CCCN3C[C@H](F)C4)nc3cc(-c4ccc(F)c5sc(N)c(C#N)c45)c(Cl)cc23)C1` [Compound 370], less than 100 nM; that for `C=CC(=O)N1C[C@H](C)N(c2nc(OC[C@@]34CCCN3C[C@H](F)C4)nc3c(F)c(-c4ccc(F)c5sc(N)c(C#N)c45)c(F)cc23)C[C@H]1C` [Compound 333], less than 100 nM.
Consider `C=CC(=O)N1CC[C@@H]2[C@H]1CN2c1nc(OCC23CCCN2CCC3)nc2c(F)c(-c3ccc(F)c4sc(N)nc34)c(C(F)(F)F)cc12` [Compound 166], for which the IC50 was in the range of 100 to 1000 nM.
Same read-out and setting: with `C=CC(=O)N1CC(Nc2nc(C3CCN(C)CC3)nc3c(F)c(-c4ccc(F)c5sc(N)nc45)c(Cl)cc23)C1` [Compound 60] the figure was greater than 1000 nM; with `C=CC(=O)N1C[C@@H](F)[C@@H](N(C)c2nc(OCC34CCCN3CCC4)nc3c(F)c(-c4ccc(F)c5sc(N)c(C#N)c45)c(C(F)(F)F)cc23)C1` [Compound 374], less than 100 nM.

Still in this test, the particulars now being: pERK inhibition IC50, NCI-H358 cells, 30 min incubation; read-out: PERK in H358 cell.
Take `C=CC(=O)N1CC[C@@H](N(C)c2nc(OCC34CCCN3CCC4)nc3c(F)c(-c4ccc(F)c5sc(N)nc45)c(C(F)(F)F)cc23)C1` (atropisomer, axis not shown) [Compound 222]: the IC50 was in the range of 100 to 1000 nM.
Same read-out and setting: the result for `C=CC(=O)N1CC[C@@H](N(c2nc(OC[C@@]34CCCN3C[C@H](F)C4)nc3c(F)c(-c4ccc(F)c5sc(N)nc45)c(C(F)(F)F)cc23)C2CC2)C1` (single isomer, unassigned) [Compound 236] reads less than 100 nM.
The same measure, in the same setting: with `C=CC(=O)N1CC[C@@H](N(C)c2nc(OC[C@@]34CCCN3C[C@H](F)C4)nc3c(F)c(-c4ccc(F)c5sc(N)c(C#N)c45)c(C(F)(F)F)cc23)[C@H]1C` (single isomer, unassigned) [Compound 434] the figure was less than 100 nM; with `C=CC(=O)N1CC[C@@H](N(c2nc(OC[C@@]34CCCN3C[C@H](F)C4)nc3c(F)c(-c4ccc(F)c5sc(N)nc45)c(C(F)(F)F)cc23)C2CC2)C1` (single isomer, unassigned) [Compound 237], greater than 1000 nM.
